The results in this text go back to US11498921B1, “Pyrimidine or pyridine compounds, preparation method therefor and pharmaceutical uses thereof” (INVENTISBIO CO., LTD., priority 2014, dated 2022).

The IC50 is the concentration at which inhibition is half-maximal.

Format in all cases: cell-based
The subject of assay [1] is NCI-H1975 cells (T790M and L858R EGFR mutations). Description: Cell growth inhibition (Cell Titer-Glo), NCI-H1975. Particulars: Homo sapiens, 72 hours drug treatment, 0.03 nM to 100 nM. How it is done: (§1) Experiment of Cell Growth Inhibition
(§2) The LoVo cell line is a wild-type EGFR human colon adenocarcinoma cell, and is grown in F-12K medium (GIBCO) containing 10% FBS. NCI-H2073 cell line is a wild-type EGFR human non-small cell lung cancer cell and grown in ACL-4 medium containing 10% FBS. The growth rate of NCI-H1975, LoVo and NCI-H2073 cells was detected by Cell Titer-Glo luminescence activity assay (Promega #G7572).
(§3) Briefly, trypsin was used for digesting cells in the logarithmic growth phase. 96-well plates were seeded with 50,000 Lovo or NCI-H2073 cells, 2500-3000 NCI-H1975 cells per well and provided with blank control wells containing only nutrient solution without inoculated cell, and the plates were incubated in a humidified incubator with 5% CO2 at 37° C. […] The concentration of test drug in NCI-H1975 cells was from 0.03 nM to 100 nM, and that in LoVo and NCI-H2073 cells was from 3 nM to 10 μM. The cell culture medium containing the different compounds was then added to a 96-well cell plate in which one cell control well comprising cell culture medium only containing DMSO was provided. After a drug treatment for 72 hours, the cell plates were removed from the incubator and allowed to stand at room temperature for 30 minutes. Next, Cell Titer-Glo reagent was added to the wells and the 96-well cell plate was shaken at room temperature for 10 minutes to induce cell lysis. The 96-well cell plate was placed on the bench for 2 minutes to stabilize the luminescence signal. Finally, the 96-well cell plate was placed in an EnVision Multi-labeled Microplate Reader (PerkinElmer), and the signal was read with an integral time of 0.5 seconds.
(§4) Formula: Percentage of cell growth inhibition %=(maximum signal−compound signal)/(maximum signal−minimum signal)*100%
(§5) The maximal signal was obtained from the cell control well which were treated with the DMSO solution having no any compound;
(§6) The compound signal was obtained from the drug-treated cell wells to which the compound was added;
(§7) The minimum signal was obtained from a blank control well to which no cells and only nutrient solution was added.

For assay [2], the system named is LoVo cells (wild-type EGFR human colon adenocarcinoma). Nature of the assay: Cell growth inhibition (Cell Titer-Glo), LoVo. Particulars: 72 hours drug treatment, 3 nM to 10 μM. How it is done:
as §1, §2, §3, §4, §5, §6, §7
On the technique in general: Cellular ATP, detected with luciferase, serves as a proxy for viable cell number.

The test system of assay [3] is NCI-H2073 cells (wild-type EGFR human non-small cell lung cancer). Nature of the assay: Cell growth inhibition (Cell Titer-Glo), NCI-H2073. Particulars: 72 hours drug treatment, 3 nM to 10 μM. As to the method:
as §1
as §2, with “The compounds that were preferentially targeted for EGFR targeting certain mutations and relatively weak in wild-type EGFR were identified by determining the growth of cells. The NCI-H1975 cell line is a human non-small cell lung cancer cell containing T790M and L858R EGFR mutations, and the cell is grown in RPMI-1640 medium (GIBCO) containing 10% fetal bovine serum (FBS). The LoVo” for “The LoVo”
Briefly, trypsin was used for digesting cells in the logarithmic growth phase. 96-well plates were seeded with 50,000 Lovo or NCI-H2073 cells, 2500-3000 NCI-H1975 cells per well and provided with blank control wells containing only nutrient solution without inoculated cell, and the plates were incubated in a humidified incubator with 5% CO2 at 37° C. After 24 hours, the DMSO solution of the different compounds was diluted with a cell culture medium at 3.16 times per time to eight different concentrations from high to low levels. The concentration of test drug in NCI-H1975 cells was from 0.03 nM to 100 nM, and that in LoVo and NCI-H2073 cells was from 3 nM to 10 μM. The cell culture medium containing the different compounds was then added to a 96-well cell plate in which one cell control well comprising cell culture medium only containing DMSO was provided. After a drug treatment for 72 hours, the cell plates were removed from the incubator and allowed to stand at room temperature for 30 minutes. Next, Cell Titer-Glo reagent was added to the wells and the 96-well cell plate was shaken at room temperature for 10 minutes to induce cell lysis. The 96-well cell plate was placed on the bench for 2 minutes to stabilize the luminescence signal. Finally, the 96-well cell plate was placed in an EnVision Multi-labeled Microplate Reader (PerkinElmer), and the signal was read with an integral time of 0.5 seconds.
as §4, §5, §6, §7

SMILES strings stand for the structures. Structures can show the parent of a compound that is named as a salt.

For the compound `C=CC(=O)Nc1cc(Nc2nccc(N3CC4(CC4)c4ccccc43)n2)c(OC)cc1N(C)CCN(C)C` [38. (HCl)n], the IC50 was 8.2 nM in assay [1], 2990 nM in assay [2] and 476 nM in assay [3].

For the compound `C=CC(=O)Nc1cc(Nc2nccc(-c3cn(CC)c4ccccc34)n2)c(OC)cc1N(C)CCN(C)C` [48. (HCl)n], the IC50 in assay [1] was determined as 5.5 nM; in assay [2], 2340 nM; in assay [3], 435 nM.

With `C=CC(=O)Nc1cc(Nc2nccc(N3CC(C)(C)c4ccccc43)n2)c(OC)cc1N(C)CCN(C)C` [37. (MsOH)3], the values for the IC50 in assay [1], in assay [2] and in assay [3] were 8.1 nM, 4660 nM and 260 nM, respectively.

For `[2H]C([2H])([2H])N(CCN(C)c1cc(OC)c(Nc2nccc(-n3nnc4ccccc43)n2)cc1NC(=O)C=C)C([2H])([2H])[2H]` [64. (HCl)n], the IC50 in assay [1] came out at 6 nM; in assay [3], 310 nM.

As for `C=CC(=O)Nc1cc(Nc2nccc(-n3nnc4ccccc43)n2)c(OC)cc1N(C)CCN(C)C` [2. (MsOH)3], the IC50 in assay [1] is 6.1 nM; in assay [2], 2300 nM; in assay [3], 474 nM.

Turning to `C=CC(=O)Nc1cc(Nc2nccc(-n3cc(S(C)(=O)=O)c4ccccc43)n2)c(OC)cc1N(C)CCN(C)C` [112. (MsOH)2], the IC50 was found to be 100 nM in assay [1] and 5420 nM in assay [3].

For `[2H]C([2H])([2H])n1c(=O)n(-c2ccnc(Nc3cc(NC(=O)C=C)c(N(C)CCN(C)C)cc3OC)n2)c2ccccc21` [65. (MsOH)2], the values for the half-inhibitory concentration (IC50) in assay [1] and in assay [3] were 1.9 nM and 151 nM, respectively.

As for `C=CC(=O)Nc1cc(Nc2nccc(-n3c(=O)n(CC(F)(F)F)c4ccccc43)n2)c(OC)cc1N(C)CCN(C)C` [108. (MsOH)2], the IC50 amounted to 5.9 nM in assay [1] and 253 nM in assay [3].

For `C=CC(=O)Nc1cc(Nc2nccc(N3c4ccccc4N(CC)S3(=O)=O)n2)c(OC)cc1N(C)CCN(C)C` [111. (MsOH)2], the values for the IC50 in assay [1] and in assay [3] were 2.7 nM and 49 nM, respectively.

For `[2H]C([2H])([2H])N(CCN(C)C)c1cc(OC)c(Nc2nccc(-n3nnc4ccccc43)n2)cc1NC(=O)C=C` [74. (MsOH)3], the half-maximal inhibitory concentration (IC50) in assay [1] came to 14.4 nM; in assay [3], 463 nM.

As for `[2H]C([2H])([2H])N(CCN(C)C)c1cc(OC)c(Nc2nccc(-n3c(=O)n(CC)c4ccccc43)n2)cc1NC(=O)C=C` [68. (MsOH)2], the concentration for half-maximal inhibition (IC50) turned out to be 0.4 nM in assay [1] and 43 nM in assay [3].

On to `C=CC(=O)Nc1cc(Nc2nccc(-n3c(=O)n(CC)c4ccccc43)n2)c(OC)cc1N(C)CCN(C)C` [66. (MsOH)3], for which the IC50 in assay [1] was 3.6 nM; in assay [3], 201 nM.

Consider `[2H]C([2H])([2H])N(CCN(C)c1cc(OC)c(Nc2nccc(-n3c(=O)n(C)c4ccccc43)n2)cc1NC(=O)C=C)C([2H])([2H])[2H]` [58. (HCl)n], for which the IC50 in assay [1] was 1.6 nM; in assay [3] it was 116 nM.

As to `C=CC(=O)Nc1cc(Nc2nccc(-n3c(=O)n(C4CC4)c4ccccc43)n2)c(OC)cc1N(C)CCN(C)C` [107. (MsOH)2], the figures for the half-inhibitory concentration (IC50) in assay [1] and in assay [3] were 7.4 nM and 185 nM, respectively.

Regarding `C=CC(=O)Nc1cc(Nc2nccc(-n3c(=O)n(CC(F)F)c4ccccc43)n2)c(OC)cc1N(C)CCN(C)C` [109. (MsOH)2], the IC50 in assay [1] came out at 4.5 nM; in assay [3], 268 nM.

In the case of `[2H]C([2H])([2H])N(CCN(C)c1cc(OC)c(Nc2nccc(N3CCc4ccccc43)n2)cc1NC(=O)C=C)C([2H])([2H])[2H]` [62. (HCl)n], the figures for the IC50 in assay [1] and in assay [3] were 3.2 nM and 270 nM, respectively.

For the compound `[2H]C([2H])([2H])N(CCN(C)C)c1cc(OC)c(Nc2nccc(-c3cn(S(C)(=O)=O)c4ccccc34)n2)cc1NC(=O)C=C` [71. (MsOH)2], the figures for the 50% inhibitory concentration (IC50) in assay [1] and in assay [3] were 0.4 nM and 64 nM, respectively.

On to `[2H]C([2H])([2H])N(CCN(C)c1cc(OC)c(Nc2nccc(-n3c(=O)[nH]c4ccccc43)n2)cc1NC(=O)C=C)C([2H])([2H])[2H]` [61. (HCl)n], for which the results for the 50% inhibitory concentration (IC50) in assay [1] and in assay [3] were 1.5 nM and 29 nM, respectively.

Consider `[2H]C([2H])([2H])N(CCN(C)c1cc(OC)c(Nc2nccc(N3CC(C)(C)c4ccccc43)n2)cc1NC(=O)C=C)C([2H])([2H])[2H]` [57. (HCl)n], for which the results for the 50% inhibitory concentration (IC50) in assay [1] and in assay [3] were 8.2 nM and 280 nM, respectively.

Take `C=CC(=O)Nc1cc(Nc2nccc(-c3cn(CC(F)F)c4ccccc34)n2)c(OC)cc1N(C)CCN(C)C` [105. (MsOH)2]: the values for the concentration for half-maximal inhibition (IC50) in assay [1] and in assay [3] were 15.7 nM and 543 nM, respectively.

For the compound `C=CC(=O)Nc1cc(Nc2nccc(-c3cn(S(=O)(=O)CC)c4ccccc34)n2)c(OC)cc1N(C)CCN(C)C` [101. (MsOH)2], the half-inhibitory concentration (IC50) was found to be 5.5 nM in assay [1] and 193 nM in assay [3].

As to `C=CC(=O)Nc1cc(Nc2nccc(-c3nn(C(C)C)c4ccccc34)n2)c(OC)cc1N(C)CCN(C)C` [113. (MsOH)2], the IC50 in assay [1] amounted to 26.5 nM; in assay [3], 595 nM.

As for `[2H]C([2H])([2H])N(CCN(C)c1cc(OC)c(Nc2nccc(-n3cc(C)c4ccccc43)n2)cc1NC(=O)C=C)C([2H])([2H])[2H]` [63. (HCl)n], the values for the half-inhibitory concentration (IC50) in assay [1] and in assay [3] were 4.8 nM and 410 nM, respectively.

On to `C=CC(=O)Nc1cc(Nc2nccc(-c3cncc4ccccc34)n2)c(OC)cc1N(C)CCN(C)C` [Example 67], for which the IC50 in assay [1] was found to be 81.7 nM; in assay [3] it was 4100 nM.

In the case of `C=CC(=O)Nc1cc(Nc2nccc(-c3cn(S(=O)(=O)C4CC4)c4ccccc34)n2)c(OC)cc1N(C)CCN(C)C` [103. (MsOH)2], the figures for the 50% inhibitory concentration (IC50) in assay [1] and in assay [3] were 13.1 nM and 300 nM, respectively.

For the compound `C=CC(=O)Nc1cc(Nc2nccc(N3c4ccccc4N(C)S3(=O)=O)n2)c(OC)cc1N(C)CCN(C)C` [110. (MsOH)2], the IC50 in assay [1] is 2.9 nM; in assay [3] it was 103 nM.

With `[2H]C([2H])([2H])N(CCN(C)C)c1cc(OC)c(Nc2nccc(-c3cn(CC)c4ccccc34)n2)cc1NC(=O)C=C` [73. (MsOH)2], the concentration for half-maximal inhibition (IC50) in assay [1] came out at 1.7 nM; in assay [3] it was 179 nM.

Turning to `C=CC(=O)Nc1cc(Nc2nccc(-n3c(=O)n(C(C)C)c4ccccc43)n2)c(OC)cc1N(C)CCN(C)C` [106. (MsOH)2], the values for the concentration for half-maximal inhibition (IC50) in assay [1] and in assay [3] were 4.7 nM and 155 nM, respectively.

As to `[2H]C([2H])([2H])N(CCN(C)c1cc(OC)c(Nc2nccc(-c3cn(CC)c4ccccc34)n2)cc1NC(=O)C=C)C([2H])([2H])[2H]` [72. (MsOH)3], the IC50 in assay [1] worked out at 2.7 nM; in assay [3] it was 282 nM.

Consider `[2H]C([2H])([2H])N(CCN(C)c1cc(OC)c(Nc2nccc(-c3cn(S(C)(=O)=O)c4ccccc34)n2)cc1NC(=O)C=C)C([2H])([2H])[2H]` [70. (MsOH)2], for which the IC50 in assay [1] worked out at 0.5 nM; in assay [3] it was 46 nM.

For the compound `[2H]C([2H])([2H])N(CCN(C)c1cc(OC)c(Nc2nccc(-n3c(=O)n(CC)c4ccccc43)n2)cc1NC(=O)C=C)C([2H])([2H])[2H]` [69. (MsOH)3], the concentration for half-maximal inhibition (IC50) in assay [1] was 0.8 nM; in assay [3], 63 nM.

Regarding `[2H]C([2H])([2H])N(CCN(C)C)c1cc(OC)c(Nc2nccc(-n3c(=O)n(C([2H])([2H])[2H])c4ccccc43)n2)cc1NC(=O)C=C` [76. (MsOH)2], the IC50 in assay [1] came out at 1 nM; in assay [3] it was 56 nM.

Take `C=CC(=O)Nc1cc(Nc2nccc(-c3cn(S(=O)(=O)C(C)C)c4ccccc34)n2)c(OC)cc1N(C)CCN(C)C` [102. (MsOH)2]: the half-inhibitory concentration (IC50) stood at 6.4 nM in assay [1] and 170 nM in assay [3].
